# Experimental data as given in patent publication US8318781B2, “G-protein-conjugated receptor agonist” (Japan Science and Technology Agency, priority 2007, dated 2012).
# Assays:
# [1] = target: T1, human GPR120 (hGPR120) (Homo sapiens, UniProt Q5NUL3); test: ERK assay, screening for GPR120 ligands in cell line TXGPR120;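 for ERK/GPR120 10 μM: signals normalized between DMSO and PMA controls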; type: cell-based; settings: for selectivity for GPR120 in ERK assay (in words): GPR120 versus GPR40; for ERK activation for GPR120 (in words) / ERK/GPR120 10 μM / ERK/GPR120 100 μM: TXGPR120 cells; for ERK activation for GPR120 (in words): FIGS. 5-8; for ERK/GPR120 10 μM: ligand 10 μM; for ERK/GPR120 10 μM / ERK/GPR120 100 μM: class relative to LA; for ERK/GPR120 100 μM: ligand 100 μM
# T1 construct: expressed in transfected cells; doxycycline-inducible expression vector
# T1 sequence (Q5NUL3 1-361): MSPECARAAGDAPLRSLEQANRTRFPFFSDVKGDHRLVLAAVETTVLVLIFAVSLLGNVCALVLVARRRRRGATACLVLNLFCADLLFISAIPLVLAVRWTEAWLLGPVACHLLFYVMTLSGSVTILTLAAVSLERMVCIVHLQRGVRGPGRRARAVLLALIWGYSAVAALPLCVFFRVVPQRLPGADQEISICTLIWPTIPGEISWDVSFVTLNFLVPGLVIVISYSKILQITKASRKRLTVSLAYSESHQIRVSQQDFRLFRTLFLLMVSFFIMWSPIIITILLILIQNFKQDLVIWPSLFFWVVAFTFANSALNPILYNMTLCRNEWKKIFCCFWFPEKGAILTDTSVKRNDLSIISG
# [2] = target: T2, human GPR40 (hGPR40) (Homo sapiens, UniProt O14842); test: ERK assay, screening for GPR40 ligands in cell line TXGPR40; type: cell-based; settings: TXGPR40 cells, class relative to LA; for ERK/GPR40 100 μM: ligand 100 μM
# T2 construct: expressed in transfected cells; doxycycline-inducible expression vector
# T2 sequence (O14842 whole entry): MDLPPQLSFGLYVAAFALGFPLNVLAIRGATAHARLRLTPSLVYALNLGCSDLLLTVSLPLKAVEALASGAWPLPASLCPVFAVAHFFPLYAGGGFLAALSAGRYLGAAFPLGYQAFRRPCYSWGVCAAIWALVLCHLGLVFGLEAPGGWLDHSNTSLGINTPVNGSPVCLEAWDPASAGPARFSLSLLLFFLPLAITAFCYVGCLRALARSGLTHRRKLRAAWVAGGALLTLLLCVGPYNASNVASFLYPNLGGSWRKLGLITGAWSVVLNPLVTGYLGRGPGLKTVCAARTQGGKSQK
SMILES,selectivity for GPR120 in ERK assay (in words) [1],ERK activation for GPR120 (in words) [1],ERK/GPR120 10 μM [1],ERK/GPR120 100 μM [1],ERK/GPR40 100 μM [2],ERK/GPR40 10 μM ([2]; ligand 10 μM)
O=C(O)CCCc1ccc(OCCN(c2ccccc2)c2nccs2)cc1 [NCG46],selective for GRP120,strongly activate ERK,+++ (+++ denotes a higher value than LA),+++ (+++ denotes a higher value than LA),++ (++ denotes 50 to 100% of LA),–
CN(C)c1ccc(N(CCOc2ccc(CCCC(=O)O)cc2)c2ccccn2)cc1 [NCG54],selective for GRP120,strongly activate ERK,+++ (+++ denotes a higher value than LA),+++ (+++ denotes a higher value than LA),++ (++ denotes 50 to 100% of LA),+ (+ denotes 0 to 100% of LA)
